# Laboratory results as given in patent publication US9718828B2 (MERCK SHARP & DOHME CORP., priority 2011, dated 2017).
# Structures can show the parent of a compound that is named as a salt.
# What was measured:
# [1] = target: T1, hBTK (full-length BTK, 6HIS-tag cleaved) (Homo sapiens (Human), UniProt Q06187); assay: BTK enzymatic activity, IMAP-FP assay (Assay Method B); format: biochemical
# Protocol: BTK enzymatic activity was determined in an IMAP-FP assay (Immobilized Metal ion Affinity-based fluorescence Polarization; Molecular Devices). […] Phosphorylation reactions were allowed to proceed for 120 minutes and were immediately quenched by the addition of 40 μL IMAP detection beads resuspended in IMAP progressive binding buffer (beads were diluted 1:600 in 75% and 25% progressive binding buffer A and B, respectively; Molecular Devices). Plates were read on Packard microplate reader after 60 minutes binding equilibration using Fluorescence Polarization protocol.
# [2] = target: T1, hBTK (full-length BTK, 6HIS-tag cleaved); assay: BTK enzymatic activity, LANCE TR-FRET assay (Assay Method C); format: biochemical; conditions: LANCE TR-FRET, 50 pM hBTK, 25 μM ATP; class 100-1000 is given as ≧100 nM-<1 μM; read-out: IC50 Btk activity values - Assay Method C
# [3] = IMAP-FP, 1.05 nM hBTK, 5 μM ATP, class 100-1000 is given as ≧100 nM-<1 μM, read-out: IC50 Btk activity values - Assay Method B
# T1 sequence (Q06187 whole entry): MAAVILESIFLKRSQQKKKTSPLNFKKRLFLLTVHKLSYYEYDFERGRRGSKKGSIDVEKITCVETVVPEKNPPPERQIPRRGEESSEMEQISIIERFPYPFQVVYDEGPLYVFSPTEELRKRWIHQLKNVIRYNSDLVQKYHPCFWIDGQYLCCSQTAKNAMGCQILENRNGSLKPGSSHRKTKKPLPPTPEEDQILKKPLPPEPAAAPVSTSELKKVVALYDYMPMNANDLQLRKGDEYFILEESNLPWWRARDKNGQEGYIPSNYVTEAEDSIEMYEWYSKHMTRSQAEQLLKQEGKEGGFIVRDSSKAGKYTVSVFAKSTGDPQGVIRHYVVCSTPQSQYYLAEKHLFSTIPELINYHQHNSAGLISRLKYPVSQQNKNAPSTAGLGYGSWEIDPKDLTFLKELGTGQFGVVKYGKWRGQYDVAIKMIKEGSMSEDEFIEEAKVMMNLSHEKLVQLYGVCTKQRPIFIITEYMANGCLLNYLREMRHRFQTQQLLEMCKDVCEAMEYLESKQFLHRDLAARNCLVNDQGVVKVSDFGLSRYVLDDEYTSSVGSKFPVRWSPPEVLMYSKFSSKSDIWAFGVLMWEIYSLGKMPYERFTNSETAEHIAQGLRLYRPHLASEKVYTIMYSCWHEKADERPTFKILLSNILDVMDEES
Structure (SMILES),"IC50 [1, 3]",IC50 [2],further results
"CC1(C(=O)N2C[C@H](c3nc(-c4ccc(C(=O)Nc5cc(C(F)(F)F)ccn5)cc4)c4c(N)nccn34)CC(F)(F)C2)COC1 (stereo in doubt) [Example 376, 4-(8-amino-3-{5,5-difluoro-1-[(3-methyloxetan-3-yl)carbonyl]piperidin-3-yl}imidazo[1,5-a]pyrazin-1-yl)-N-[4-(trifluoromethyl)pyridin-2-yl]benzamide]",< 0.01 µM,,
"C[C@H]1CC[C@@H](c2nc(-c3ccc(C(=O)Nc4ccccn4)cc3)c3c(N)nccn23)CN1C(=O)C1CC1 (stereo in doubt) [Example 394, 4-{8-amino-3-[(3R,6S)-1-(cyclopropylcarbonyl)-6-methylpiperidin-3-yl]imidazo[1,5-a]pyrazin-1-yl}-N-pyridin-2-ylbenzamide]",< 0.01 µM,,
"C[C@H]1C[C@@H](c2nc(-c3ccc(C(=O)Nc4cc(C(F)(F)F)ccn4)cc3)c3c(N)nccn23)CN(C(=O)C2(C)COC2)C1 [Example 374, 4-(8-amino-3-{(3R,5S)-5-methyl-1-[(3-methyloxetan-3-yl)carbonyl]piperidin-3-yl}imidazo[1,5-a]pyrazin-1-yl)-N-[4-(trifluoromethyl)pyridin-2-yl]benzamide]",< 0.01 µM,,
"C[C@@H]1C[C@@H](c2nc(-c3ccc(C(=O)Nc4cc(C(F)(F)F)ccn4)cc3)c3c(N)nccn23)CN(C(=O)C2(C)COC2)C1 [Example 375, 4-(8-amino-3-{(3R,5R)-5-methyl-1-[(3-methyloxetan-3-yl)carbonyl]piperidin-3-yl}imidazo[1,5-a]pyrazin-1-yl)-N-[4-(trifluoromethyl)pyridin-2-yl]benzamide]",0.01 to 0.1 µM,,
"C[C@@H]1CCN(C(=O)C2(C)COC2)C[C@@H]1c1nc(-c2ccc(C(=O)Nc3cc(C(F)(F)F)ccn3)cc2)c2c(N)nccn12 [Example 377, 4-(8-amino-3-{(3R,4R)-4-methyl-1-[(3-methyloxetan-3-yl)carbonyl]piperidin-3-yl}imidazo[1,5-a]pyrazin-1-yl)-N-[4-(trifluoromethyl)pyridin-2-yl]benzamide]",0.1 to 1 µM,,
"C[C@H]1CCN(C(=O)C2(C)COC2)C[C@@H]1c1nc(-c2ccc(C(=O)Nc3cc(C(F)(F)F)ccn3)cc2)c2c(N)nccn12 [Example 378, 4-(8-amino-3-{(3R,4S)-4-methyl-1-[(3-methyloxetan-3-yl)carbonyl]piperidin-3-yl}imidazo[1,5-a]pyrazin-1-yl)-N-[4-(trifluoromethyl)pyridin-2-yl]benzamide]",0.01 to 0.1 µM,,
"C[C@@H]1[C@H](c2nc(-c3ccc(C(=O)Nc4cc(C(F)(F)F)ccn4)cc3)c3c(N)nccn23)CCCN1C(=O)C1(C)COC1 [Example 379, 4-(8-amino-3-{(2R,3R)-2-methyl-1-[(3-methyloxetan-3-yl)carbonyl]piperidin-3-yl}imidazo[1,5-a]pyrazin-1-yl)-N-[4-(trifluoromethyl)pyridin-2-yl]benzamide]",< 0.01 µM,,
"C[C@H]1[C@H](c2nc(-c3ccc(C(=O)Nc4cc(C(F)(F)F)ccn4)cc3)c3c(N)nccn23)CCCN1C(=O)C1(C)COC1 [Example 380, 4-(8-amino-3-{(2S,3R)-2-methyl-1-[(3-methyloxetan-3-yl)carbonyl]piperidin-3-yl}imidazo[1,5-a]pyrazin-1-yl)-N-[4-(trifluoromethyl)pyridin-2-yl]benzamide]",0.01 to 0.1 µM,,
"CC1(C(=O)N2CCC[C@@H](n3cc(-c4ccc(C(=O)Nc5cc(C#N)ccn5)cc4)c4c(N)ncnc43)C2)COC1 [Example 390, 4-(4-amino-7-{(3R)-1-[(3-methyloxetan-3-yl)carbonyl]piperidin-3-yl}-7H-pyrrolo[2,3-d]pyrimidin-5-yl)-N-(4-cyanopyridin-2-yl)benzamide]",0.01 to 0.1 µM,,
"CCc1ccnc(NC(=O)c2ccc(-c3cn([C@@H]4CCCN(C(=O)C5(C)COC5)C4)c4ncnc(N)c34)cc2)c1 [Example 391, 4-(4-amino-7-{(3R)-1-[(3-methyloxetan-3-yl)carbonyl]piperidin-3-yl}-7H-pyrrolo[2,3-d]pyrimidin-5-yl)-N-(4-ethylpyridin-2-yl)benzamide]",,,IC50 [1]: 0.01 to 0.1 µM
"COc1cc(C(=O)Nc2cc(C(F)(F)F)ccn2)ccc1-c1nc([C@@H]2CC[C@H](C)N(C(=O)C3(C)COC3)C2)n2ccnc(N)c12 [Example 401, 4-(8-amino-3-{(3R,6S)-6-methyl-1-[(3-methyloxetan-3-yl)carbonyl]piperidin-3-yl}imidazo[1,5-a]pyrazin-1-yl)-3-methoxy-N-[4-(trifluoromethyl)pyridin-2-yl]benzamide]",< 0.01 µM,,
"Cc1ccnc(NC(=O)c2ccc(-c3nc([C@@H]4CC[C@H](C)N(C(=O)C5(C)COC5)C4)n4ccnc(N)c34)cc2)c1 [Example 402, 4-(8-amino-3-{(3R,6S)-6-methyl-1-[(3-methyloxetan-3-yl)carbonyl]piperidin-3-yl}imidazo[1,5-a]pyrazin-1-yl)-N-(4-methylpyridin-2-yl)benzamide]",< 0.01 µM,,
"COCC(=O)N1CCC[C@@H](c2nc(-c3ccc(C(=O)Nc4cc(C(F)(F)F)ccn4)cc3F)c3c(N)nccn23)C1 [Example 575, 4-{8-amino-3-[(3R)-1-(methoxyacetyl)piperidin-3-yl]imidazo[1,5-a]pyrazin-1-yl}-3-fluoro-N-[4-(trifluoromethyl)pyridin-2-yl]benzamide, TFA salt]",,< 0.01 µM,
"COCCC(=O)N1CCC[C@@H](c2nc(-c3ccc(C(=O)Nc4cc(C(F)(F)F)ccn4)cc3F)c3c(N)nccn23)C1 [Example 576, 4-{8-amino-3-[(3R)-1-(3-methoxypropanoyl)piperidin-3-yl]imidazo[1,5-a]pyrazin-1-yl}-3-fluoro-N-[4-(trifluoromethyl)pyridin-2-yl]benzamide, TFA salt]",,< 0.01 µM,

# Second part, led by results:
"IC50 [1, 3]",IC50 [2],Structure (SMILES),further results
< 0.01 µM,,"CC1(C(=O)N2CCC[C@@H](n3cc(-c4ccc(C(=O)Nc5cc(C(F)(F)F)ccn5)cc4)c4c(N)ncnc43)C2)COC1 [Example 389, 4-(4-amino-7-{(3R)-1-[(3-methyloxetan-3-yl)carbonyl]piperidin-3-yl}-7H-pyrrolo[2,3-d]pyrimidin-5-yl)-N-[4-(trifluoromethyl)pyridin-2-yl]benzamide]",
,0.1 to 1 µM,"Cn1cc2c(n1)CCC[C@H]2n1nc(-c2ccc(C(=O)Nc3cc(C(F)(F)F)ccn3)cc2)c2c(N)ncnc21 [Example 557, 4-{4-amino-1-[(4R)-2-methyl-4,5,6,7-tetrahydro-2H-indazol-4-yl]-1H-pyrazolo[3,4-d]pyrimidin-3-yl}-N-[4-(trifluoromethyl)pyridin-2-yl]benzamide, TFA salt]",
,< 0.01 µM,"Cn1cc2c(n1)CCC[C@@H]2n1nc(-c2ccc(C(=O)Nc3cc(C(F)(F)F)ccn3)cc2)c2c(N)ncnc21 [Example 558, 4-{4-amino-1-[(4S)-2-methyl-4,5,6,7-tetrahydro-2H-indazol-4-yl]-1H-pyrazolo[3,4-d]pyrimidin-3-yl}-N-[4-(trifluoromethyl)pyridin-2-yl]benzamide, TFA salt]",
,< 0.01 µM,"CCn1ncc2c1CCC[C@H]2n1nc(-c2ccc(C(=O)Nc3cc(C(F)(F)F)ccn3)cc2)c2c(N)ncnc21 [Example 559, 4-{4-amino-1-[(4R)-1-ethyl-4,5,6,7-tetrahydro-1H-indazol-4-yl]-1H-pyrazolo[3,4-d]pyrimidin-3-yl}-N-[4-(trifluoromethyl)pyridin-2-yl]benzamide, TFA salt]",
,0.01 to 0.1 µM,"CCn1cc2c(n1)CCC[C@@H]2n1nc(-c2ccc(C(=O)Nc3cc(C(F)(F)F)ccn3)cc2)c2c(N)ncnc21 [Example 560, 4-{4-amino-1-[(4S)-2-ethyl-4,5,6,7-tetrahydro-2H-indazol-4-yl]-1H-pyrazolo[3,4-d]pyrimidin-3-yl}-N-[4-(trifluoromethyl)pyridin-2-yl]benzamide, TFA salt]",
,< 0.01 µM,"Nc1ncnc2c1c(-c1ccc(C(=O)Nc3cc(C(F)(F)F)ccn3)cc1)nn2[C@@H]1CCCc2c1cnn2CCO [Example 561, 4-{4-amino-1-[(4R)-1-(2-hydroxyethyl)-4,5,6,7-tetrahydro-1H-indazol-4-yl]-1H-pyrazolo[3,4-d]pyrimidin-3-yl}-N-[4-(trifluoromethyl)pyridin-2-yl]benzamide, TFA salt]",
,< 0.01 µM,"Nc1ncnc2c1c(-c1ccc(C(=O)Nc3cc(C(F)(F)F)ccn3)cc1)nn2[C@@H]1CCCc2nn(CCO)cc21 [Example 562, 4-{4-amino-1-[(4R)-2-(2-hydroxyethyl)-4,5,6,7-tetrahydro-2H-indazol-4-yl]-1H-pyrazolo[3,4-d]pyrimidin-3-yl}-N-[4-(trifluoromethyl)pyridin-2-yl]benzamide, TFA salt]",
,< 0.01 µM,"Nc1ncnc2c1c(-c1ccc(C(=O)Nc3cc(C(F)(F)F)ccn3)cc1)nn2[C@H]1CCCc2c1cnn2CCO [Example 563, 4-{4-amino-1-[(4S)-1-(2-hydroxyethyl)-4,5,6,7-tetrahydro-1H-indazol-4-yl]-1H-pyrazolo[3,4-d]pyrimidin-3-yl}-N-[4-(trifluoromethyl)pyridin-2-yl]benzamide, TFA salt]",
,< 0.01 µM,"Nc1ncnc2c1c(-c1ccc(C(=O)Nc3cc(C(F)(F)F)ccn3)cc1)nn2[C@H]1CCCc2nn(CCO)cc21 [Example 564, 4-{4-amino-1-[(4S)-2-(2-hydroxyethyl)-4,5,6,7-tetrahydro-2H-indazol-4-yl]-1H-pyrazolo[3,4-d]pyrimidin-3-yl}-N-[4-(trifluoromethyl)pyridin-2-yl]benzamide, TFA salt]",
,0.01 to 0.1 µM,"CCN1CCC(c2nc(-c3ccc(C(=O)Nc4cc(C(F)(F)F)ccn4)cc3)c3c(N)nccn23)CC1=O (stereo not drawn) [Example 573, 4-[8-amino-3-(1-ethyl-2-oxopiperidin-4-yl)imidazo[1,5-a]pyrazin-1-yl]-N-[4-(trifluoromethyl)-pyridin-2-yl]benzamide, TFA salt]",
